# Test results taken from US20260151410A1, “Tetrahydronaphthyridine Derivatives, Medicine Prepared Therefrom, and Applications Thereof in Preventing and Treating Adhesion-related Diseases” (SCINNOHUB PHARMACEUTICAL CO., LTD, priority 2022, published 2026).
# Like-named read-outs stand apart in the source and are kept apart here.
# How the values were obtained:
# [1] = test system: postoperative intra-abdominal adhesions; conditions: for extent (and locations) of intra-abdominal adhesions compared with the model group: rats, single gavage 12 mL/kg 2 hours before operation, 7 days after operation
# Protocol: Seventy male SPF SD rats, 220±20 g each, were purchased from Beijing Vital River Experimental Animal Technology Co., Ltd. After 2 weeks of adaptive feeding in the laboratory, the animals were numbered by ear tags and randomized into 7 groups, with […] in each group.
# The positive drug was tranexamic acid (TXA).
# An amount of the positive drug tranexamic acid (TXA) was weighed and added with the electrolyte solution to prepare 64 mM and 21 mM solutions.
# The animals were given a single dose at 12 mL/kg by oral gavage 2 hours before the laparotomy operation. The animals in the sham operation group and the model group were given the solvents.
# The animals were fasted but water was given before the operation (>12 hours). The abdomen was locally depilated after inhalation anesthesia and disinfected with iodophor solution. An incision with the size of 3 cm was made in the midline area of the abdomen of the experimental animal using a scalpel, and the cecum was taken out. The serosal layer on each side of the ileocecal region was repeatedly rubbed with sterile gauze until there were needle-like bleeding points on the surface, forming a damaged wound inside and outside of the cecum. The cecum was returned back to the abdominal cavity. The abdominal cavity was closed, sutured layer by layer with surgical sutures, and disinfected. The entire operation should be performed aseptically. The experimental operations were carried out for 4 animals in each group. In the sham operation group, the animal's abdomens were opened only without damaging the cecum.
# The animals were dissected and observed 7 days after the operation.
# The intestinal adhesions were scored using the Phillips grading method.
# MMP9 = MMP9 (Homo sapiens, UniProt P14780); assay: Inhibition of recombinant human protease MMP9, fluorescence assay; assay type: biochemical
# Protocol: (§1) The purpose is to determine the inhibitory activity of the compounds of the present disclosure on recombinant human proteases Trypsin, MMP9, and TACE.
# (§2) • Trypsin: 100 mM Tris-HCl, 75 mM NaCl, 2.5 mM CaCl2, 10 mM Cysteine, pH 7.5 • MMP9: 50 mM Tris, 10 mM CaCl2), 150 mM NaCl, 0.05% Brij-35 (w/v), pH7.5 • TACE: 25 mM Tris, 2.5 μM ZnCl2, 0.005% Brij-35 (w/v), pH 9.0 […]
# (§3) The inhibitory effect of the compounds of the present disclosure on the above three proteases was determined by the above test, and the measured IC50 values were as follows.
# [2] = test system: total proteases in the homogenate of the jejunal segment of the small intestine of rats; assay: Inhibition of total proteases in rat small intestine (jejunum) homogenate, fluorescent protease activity kit; assay type: biochemical; conditions: ΔRFU within 30 minutes
# Description: The purpose is to determine the inhibitory activity of the compounds of the present disclosure on total proteases in the homogenate of the jejunal segment of the small intestine of rats.
# • a) Preparation of rat intestinal homogenate and protein quantification • i. Tissue sampling: The experimental animals were anesthetized and bled to death. The small intestine was folded in half from the ileocecal junction to the duodenum at the lower end of the stomach, and the jejunum in the middle with a size of about 4 cm was taken; after washing with a 0.9% sodium chloride solution, it was quickly frozen in liquid nitrogen and then transferred to −80° C. for storage; • ii. […] The total protein of the homogenate was quantified using the BCA protein concentration assay kit according to the instructions. • b) Inhibitory activity test of compound • i. […]
# • v. […] The fluorescence signals at FI=Ex 485/Em 520 nm were detected continuously within 30 minutes (once every 5 minutes) using a kinetic mode. • c) Data analysis
# The difference between fluorescence signals within 30 minutes was calculated and recorded as ΔRFU. […]
# The inhibitory effect of the compounds of the present disclosure on the total proteases in the rat small intestine homogenate was determined by the above test, and the measured IC50 values were as follows.
# TACE(ADAM17) = TACE(ADAM17) (Homo sapiens, UniProt P78536); assay: Inhibition of recombinant human protease TACE, fluorescence assay; assay type: biochemical
# Protocol: as §1, §2, §3
# [3] = test system: postoperative intestinal adhesions; assay: Abdominal adhesion model by the file method (cecal friction), Phillips grading; assay type: in vivo, SD rats; conditions: rats; gavage 2% solution 12 mL/kg 2 hours before operation + peritoneal irrigation 1% solution 2 mL/animal; 7th day after operation
# Description: • 3.1 Experimental animals: The male SPF SD rats (220 g each) were purchased from the Experimental Animal Center of Hangzhou Medical College and passed the inspection of Zhejiang Provincial Experimental Animal Quality Supervision and Inspection Station. […] The solvent used for intragastric administration was compound polyethylene glycol electrolyte solution; the solvent used for irrigation administration was sterile saline solution. • 3.3 Preparation of solvent: One bag of compound polyethylene glycol electrolyte solution (68.56 g) was dissolved in 1 L of pure water, and is further added with 44 g of glucose (containing water) to make the glucose content of 4% (w/v) in the solvent. The prepared solvent was stored at 2-8° C. and used within one week. • 3.4 Preparation of intragastric solution: An amount of test sample was weighed and added with an appropriate amount of sterile ultrapure water to prepare a 20% (w/v) stock solution, then an equivalent amount of NaOH was added to adjust the pH to neutral until completely dissolved (the pH value was measured). […]
# TACE(ADAM17), sequence (P78536 215-824): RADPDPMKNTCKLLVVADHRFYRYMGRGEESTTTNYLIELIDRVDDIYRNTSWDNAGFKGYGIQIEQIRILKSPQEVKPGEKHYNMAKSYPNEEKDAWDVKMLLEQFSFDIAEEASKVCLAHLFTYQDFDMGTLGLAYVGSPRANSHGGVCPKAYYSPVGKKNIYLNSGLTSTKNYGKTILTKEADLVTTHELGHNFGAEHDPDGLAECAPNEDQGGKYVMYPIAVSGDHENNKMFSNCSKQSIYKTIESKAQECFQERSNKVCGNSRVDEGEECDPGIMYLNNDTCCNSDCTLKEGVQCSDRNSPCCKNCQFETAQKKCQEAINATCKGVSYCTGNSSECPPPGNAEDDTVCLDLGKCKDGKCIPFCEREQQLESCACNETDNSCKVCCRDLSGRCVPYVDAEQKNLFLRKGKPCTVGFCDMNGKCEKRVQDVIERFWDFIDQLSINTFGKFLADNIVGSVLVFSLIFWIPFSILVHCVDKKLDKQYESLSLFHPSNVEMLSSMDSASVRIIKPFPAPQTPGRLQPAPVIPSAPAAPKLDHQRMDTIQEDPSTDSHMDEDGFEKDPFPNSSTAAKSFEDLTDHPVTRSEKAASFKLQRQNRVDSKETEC
# MMP9, sequence (P14780 94-707): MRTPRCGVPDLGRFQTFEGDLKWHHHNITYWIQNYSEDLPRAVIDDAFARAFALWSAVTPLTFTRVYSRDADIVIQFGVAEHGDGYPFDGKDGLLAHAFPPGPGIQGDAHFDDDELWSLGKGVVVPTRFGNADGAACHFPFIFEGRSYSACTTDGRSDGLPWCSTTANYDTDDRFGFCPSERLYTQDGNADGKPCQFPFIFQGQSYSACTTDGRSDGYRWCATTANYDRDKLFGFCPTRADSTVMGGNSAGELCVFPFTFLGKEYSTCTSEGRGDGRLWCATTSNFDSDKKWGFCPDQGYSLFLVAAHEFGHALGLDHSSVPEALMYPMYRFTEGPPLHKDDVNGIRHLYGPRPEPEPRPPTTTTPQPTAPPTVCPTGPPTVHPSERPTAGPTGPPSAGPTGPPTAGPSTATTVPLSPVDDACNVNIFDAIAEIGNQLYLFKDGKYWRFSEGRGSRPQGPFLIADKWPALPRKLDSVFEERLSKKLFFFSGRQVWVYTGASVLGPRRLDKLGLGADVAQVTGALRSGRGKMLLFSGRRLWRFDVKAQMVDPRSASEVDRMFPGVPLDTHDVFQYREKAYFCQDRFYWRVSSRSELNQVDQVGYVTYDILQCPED
Compound,"animal deaths after the operation ([1]; rat, in vivo)",extent (and locations) of intra-abdominal adhesions compared with the model group ([1]; 21 mM solution),extent (and locations) of intra-abdominal adhesions compared with the model group ([1]; 64 mM solution),"IC50 (MMP9; recombinant human MMP9 0.2 μg/mL, substrate 10 μM, room temperature 30 minutes, read-out: IC50 MMP9)",IC50 [2],"IC50 (TACE(ADAM17); recombinant human TACE 0.2 μg/mL, substrate 20 μM, room temperature 30 minutes, read-out: IC50 TACE(ADAM17))",IC50 (MMP9),animals with quantity and extent of intestinal adhesions significantly improved compared with the model group [3],IC50 (TACE(ADAM17))
"NC[C@H]1CC[C@H](C(=O)O)CC1 [tranexamic acid, reference compound]",one animal died,exhibited an alleviating trend,significantly alleviated,,,,,,
"Cl.O=C(O)c1ccc2c(n1)CCNC2 [Preparative example 1, 5,6,7,8-tetrahydro-1,6-naphthyridine-2-carboxylic acid hydrochloride]",,reduced,reduced significantly,6.56 mM,13.4 mM,5.43 mM,,,
"Cl.O=P(O)(O)c1ccc2c(n1)CCNC2 [Preparative example 2, (5,6,7,8-tetrahydro-1,6-naphthyridin-2-yl) phosphonic acid hydrochloride]",,,improved to a certain extent,,17.9 mM,,~25 mM,more than 80%,7.38 mM
